Patent US20070270350A1, “Methods and Compositions for the Prevention and Treatment of Inflammatory Diseases or Conditions” (MUSC FOUNDATION FOR RESEARCH DEVELOPMENT, priority 2003, published 2007)

Tests used:
iNOS [1] = assay: LPS-induced iNOS expression and iNOS promoter activity in primary astrocytes (AICAR); format: cell-based, rat; details: GGPP 10 μM, FPP 10 μM, mevalonate 10 mM with AICAR 1 mM
Procedure: Immunoblot Analysis: Cells were harvested in ice-cold lysis buffer (50 mM Tris-HCl, pH 7.4, containing 50 mM NaCl, 1 mM EDTA, 0.5 mM EGTA, 10% glycerol and protease inhibitor cocktail) and protein was estimated using Bradford reagent (Bio-Rad, USA). Fifty microgram of total protein/lane was separated by SDS-PAGE and blotted to nitrocellulose (Amersham Pharmacia Biotech). Blots were blocked for 1 h in 5% nonfat dry milk-TBS-0.1% Tween 20 and incubated overnight with primary antibody (1:1000) in 5% BSA-TBS-0.1% Tween 20 at 4° C. This was followed by incubation of 1 h with appropriate secondary peroxidase conjugated antibody (1:10,000, Sigma). Immunoreactivity was detected using the enhanced chemiluminescence detection method according to the manufacturer's instructions (Amersham Pharmacia Biotech) and subsequent exposure of the membrane to X-ray film. Antisense experiments: To decrease the levels of endogenous AMPK, astrocytes were pretreated for 48 h with 25 μm (of phosphothiorated antisense (AS) oligonucleotide ([NT]) directly against both the ? α1 and α2 ? subunits of AMPK (Culmsee et al., 2001) ? ? ? missense (MS) oligonucleotide ([NT]) was used in control cultures. Oligonucleotides were transfected with OligofectamineTM reagent as per manufacturer's instructions. Northern blot, gene array analysis and RT-PCR for cytokines expression: Total RNA was extracted with Trizol (Gibco) according to the manufacturer's protocol. Northern blot for iNOS was performed with 15 μg of RNA per reaction as described previously (Pahan et al., 1997). β-actin was used as control for RNA loading. Gene expression array for inflammatory cytokines (TNFα, IL-1β, IL-6 and IFN-γ) was used according to the manufacturer's protocol (Superarray). Signal quantitation was determined using imaging densitomter (Bio-Rad Lab, Hercules, Calif.). For RT-PCR, RNA was isolated from treated rat brain cerebral cortex by extracting in Trizol as above. cDNA was prepared from 5 μg of total RNA using poly dT as a primer and Moloney murine leukemia virus reverse transcriptase (Promega) as per manufacturer's instructions. 2 μl of cDNA was used to amplify the following products [given as product name, expected size, and forward (F) and reverse (R) primers used]: iNOS, 730 bp. ([NT]-1β, 623 bp. ([…]-α, 473 bp. ([…], 528 bp. […] Transcriptional assays: Primary astrocytes or microglial cell line (BV2) were transiently transfected with NF- ? B-or iNOS-luciferase reporter gene with ? -galactosidase in the presence or absence of dominant negative AMPKα2 or HA-IKK ? by lipofectamine-2000 (astrocytes) and lipofectamine-Plus (BV2, Invitrogen) according to the manufacturer instructions. pcDNA3 was used to normalize all groups to equal amounts of DNA. Luciferase activity was determined using a luciferase kit (Promega).

Macrophages = details: 10 μM lovastatin or 5 mM NaPA 8 h, LPS 1.0 μg/ml, 24 h
Microglia = details: 10 μM lovastatin or 5 mM NaPA 8 h, LPS 1.0 μg/ml, 24 h
Rat Primary Astrrocytes = details: LPS 1.0 μg/ml, 24 h
KA-treated rats = assay: KA-induced seizure model (epilepsy model), rat hippocampus; format: in vivo; details: 3 days after KA
Procedure: FIG. 45. Experimental design for the use of statins as a therapeutic for kinic acid induced seizures (epilepsy model).
FIG. 46. […] The rats were orally pre-treated (7 days before) with atorvastatin (LP; 10 mg/kg) prior to KA (10 mg/kg, i.p.). At 3 days after KA injection, neuronal cell death in hippocampus was examined using cresyl violet stain.
FIG. 47. […] The rats were orally pre-treated (7 days before) with atorvastatin (LP; 10 mg/kg) prior to KA (10 mg/kg, i.p.). At 3 days after KA injection, infiltration of macrophages in the CA1 and CA3 regions of the hippocampus was examined using immunofluorescent labeling against for ED-1, as a marker of monocytes.
The rats were orally pre-treated (7 days before) with atorvastatin (LP; 10 mg/kg) prior to KA (10 mg/kg, i.p.). At 3 days after KA injection, neuronal cell death in the CA1 (A) and CA3 (B) regions of the hippocampus was examined using TUNNEL assay.
FIG. 49. […] The rats were orally pre-treated (7 days before) with lovastatin (Lov; 10 mg/kg) prior to KA (10 mg/kg, i.p.). At 3 days after KA injection, neuronal cell death in hippocampus was examined using cresyl violet stain.
(§1) FIG. 50A-C. […] The rats were orally pre-treated (7 days before) with atorvastatin (LP; 10 mg/kg) prior to KA (10 mg/kg, i.p.). At 3 days after KA injection, the expression of inflammatory genes (TNF-α, IL-1β, and iNOS) in hippocampus using real time PCR. The expression of each gene was normalized with GAPDH expression.
as §1, with “51A-C.” for “50A-C.”, “lovastatin (Lov;” for “atorvastatin (LP;”
Seizure index: stage 1, facial clonus; stage 2, nodding; stage 3, forelimb clonus; stage 4, forelimb clonus with rearing; stage 5, rearing, jumping, and falling. The rats were orally pre-treated (7 days before) with lovastatin or atorvastatin (Lov or LP; 10 mg/kg) prior to KA (10 mg/kg, i.p.).

iNOS [2] = assay: LPS/IFN-induced NO production and iNOS gene expression in primary astrocytes; format: cell-based, rat; details: for effect on D-PDMP mediated inhibition of NO production: glycosphingolipid 5 and 10 μM added with D-PDMP 50 μM, 0.5 hr before LPS/IFN
[3] = Comparison of biology of IFN-β, GA and statin + GSNO (Table 2)
Excerpt: FIGS. 28-52 provide additional data that show the effectiveness of statins in treating a variety of inflammatory diseases such as multiple sclerosis, spinal cord injury, stroke, and kinic acid induced seizures. Additionally, Table 2 provides data concerning the treatment of multiple sclerosis (MS) with statins as compared to two other approved MS drugs.

iNOS [4] = assay: LPS/IFN-induced NO production and iNOS expression in C6 glioma cells; format: cell-based, rat; details: exogenous glycosphingolipid with D-PDMP
Procedure: C6 rat glioma cells obtained from ATCC were maintained in Dulbecco's modified Eagle's medium (DMEM) (GIBCO, CA) containing 10% fetal bovine serum (FBS) (GIBCO) and 10 ? g/ml gentamicin. All the cultured cells were maintained at 37° C. in 5% CO2/95% air. At 80% confluency, the cells were incubated with serum free DMEM medium for 24 h prior to the incubation with LPS/IFN ? and other chemicals. Assay for NO production. Cells were cultured in 12-well plastic tissue culture plates. After the appropriate treatment, production of NO was determined by an assay of the culture supernatant for nitrite (Green et al., 1982). Briefly, 100 μl of culture supernatant was allowed to react with 100 μl of Griess reagent. The optical density of the assay samples was measured spectrophotometrically at 570 nm. Nitrite concentrations were calculated from a standard curve derived from the reaction of NaNO2 in fresh media. Western Blot Analysis. […] The protein concentration of samples was determined with the detergent compatible protein assay reagent (Bio-Rad Laboratories, CA) using bovine serum albumin (BSA) as the standard. Sample was boiled for 3 min with 0.1 volumes of 10% O-mercaptoethanol and 0.5% bromophenol blue mix. Fifty μg of total cellular protein was resolved by electrophoresis in 8 or 12% polyacrylamide gels, electro-transferred to polyvinylidene difluoride (PVDF) filter and blocked with Tween 20 containing Tris-buffered saline [TBST; 10 mM Trizma base (pH 7.4), 1% Tween 20, and 150 mM NaCl] with 5% skim milk. After incubation with antiserum against iNOS (BD PharMingen, CA), or hRas (Upstate Biotechnology, CA), or phospho-specific MAPK (p42/44) (Signal Transduction), in PVDF buffer for 2 h at room temperature, the filters were washed 3 times with TBST buffer and then incubated with horseradish peroxidase conjugated anti-rabbit or mouse IgG for 1 h. The membranes were autoradiographed by using ECL-plus (Amersham Pharmacia Biotech) after washing with TBST buffer. RT-PCR amplification. […] PCR amplification was conducted in 25 ? l of reaction mixture with 1.0 ? l of cDNA, […] and under the manufacturer's Taq polymerase conditions (Takara, […] Shuzo Co. Ltd, Japan). The sequence of primers used for PCR amplification are as follows; iNOS, (Forward-[NT], Reverse-[NT]), GalT-2 (Forward-[NT], Reverse-[NT]), GAPDH (Forward-[NT], Reverse-[NT]).

[5] = 10 mg/kg orally, 7 days before KA
[6] = PD98059 pretreatment 0.5 hr before LPS, 24 hrs

Molecule: CC(C)=CCC/C(C)=C/CC/C(C)=C/CC/C(C)=C/COP(=O)(O)OP(=O)(O)O [GGPP, geranylgeranyl pyrophosphate]
- effect on inhibitory effect of AICAR on LPS induced iNOS-luciferase activity (iNOS [1]): did not reverse

Molecule: O=C([O-])Cc1ccccc1.[Na+] [NaPA]
- TNF-α (Macrophages; LPS only 18.6 +/− 2.3): 1.7 +/− 0.2 ng/24 h/mg protein
- Il-1β (Macrophages; LPS only 34.6 +/− 4.5): 3.1 +/− 0.4 ng/24 h/mg protein
- NO (Macrophages; LPS only 118.5 +/− 12.5): 9.5 +/− 0.7 n mol/24 h/mg protein
- IL-6 (Macrophages; LPS only 350.0 +/− 27.6): 10.2 +/− 1.4 ng/24 h/mg protein
- TNF-α (Microglia; LPS only 14.5 +/− 2.1): 1.3 +/− 0.2 ng/24 h/mg protein
- Il-1β (Microglia; LPS only 28.2 +/− 3.4): 2.4 +/− 0.2 ng/24 h/mg protein
- NO (Microglia; LPS only 81.2 +/− 6.9): 6.9 +/− 0.9 n mol/24 h/mg protein
- IL-6 (Microglia; LPS only 295.6 +/− 33.5): 9.3 +/− 1.2 ng/24 h/mg protein
- TNF-α (Rat Primary Astrrocytes; 10 μM lovastatin or 5 mM NaPA 8 h, LPS only 5.3 +/− 0.8): 0.4 +/− 0.06 ng/24 h/mg protein
- Il-1β (Rat Primary Astrrocytes; 10 μM lovastatin or 5 mM NaPA 8 h, LPS only 10.4 +/− 1.5): 1.1 +/− 0.2 ng/24 h/mg protein
- IL-6 (Rat Primary Astrrocytes; 10 μM lovastatin or 5 mM NaPA 8 h, LPS only 136.5 +/− 16.8): 1.1 +/− 0.2 ng/24 h/mg protein
- NO (Rat Primary Astrrocytes; 10 μM lovastatin or 5 mM NaPA 8 h serum free, LPS only 25.3 +/− 3.2): 5.4 +/− 0.6 n mol/24 h/mg protein

Molecule: CC(O)(CCO)CC(=O)O (stereo not shown) [mevalonate]
- effect on inhibitory effect of AICAR on LPS induced iNOS-luciferase activity (iNOS [1]): did not reverse

Molecule: CC(C)c1c(C(=O)Nc2ccccc2)c(-c2ccccc2)c(-c2ccc(F)cc2)n1CC[C@@H](O)C[C@@H](O)CC(=O)O [Atorvastatin, atorvastatin]
- apoptosis induced by KA in hippocampus (TUNNEL assay, CA1 and CA3) (KA-treated rats; [5]): inhibited
- infiltration of macrophages induced by KA in hippocampus (ED-1) (KA-treated rats; [5]): inhibited
- KA-induced neuronal cell death in hippocampus (cresyl violet stain) (KA-treated rats; statin 10 mg/kg orally, 7 days before KA 10 mg/kg i.p.): inhibited
- expression of inflammatory genes (TNF-α, IL-1β, and iNOS) induced by KA in hippocampus (real time PCR) (KA-treated rats; statin 10 mg/kg orally, 7 days before KA): inhibited

Molecule: 5′-CGCTTGAGCGCAGACATCTT-3′ (chemistry not given here) [antisense DNA oligomer, 20-mer antisense oligonucleotide targeted against rat lactosylceramide synthase (GalT-2)]
- iNOS mRNA and protein levels (iNOS [2]; GalT-2 antisense 200 nM oligo, stimulated 2 d after transfection, 6 hrs mRNA, 24 hrs protein): reduced significantly
- LPS/IFN-mediated NO production (iNOS [2]; GalT-2 antisense 200 nM oligo, stimulated 2 d after transfection, 24 hr): reduced significantly

Molecule: CC(C)=CCC/C(C)=C/CC/C(C)=C/COP(=O)(O)OP(=O)(O)O [FPP, farnesyl pyrophosphate]
- effect on inhibitory effect of AICAR on LPS induced iNOS-luciferase activity (iNOS [1]): did not reverse

Molecule: COc1cccc(-c2cc(=O)c3ccccc3o2)c1N [PD98059]
- NO production (iNOS [2]; [6]): inhibition
- iNOS expression (iNOS [2]; [6]): inhibition

Molecule: galactosylceramide [GalCer]
- effect on D-PDMP mediated inhibition of NO production (iNOS [2]; 24 hrs): did not reverse

Molecule: glatiramer acetate [GA]
- Decrease expression of adhesion molecules [3]: No
- Decrease inflammatory cytokines [3]: Yes
- Decreased expression of MHCII [3]: No
- Excludes leukocytes from entering CNS [3]: No
- Inhibition of MMPs [3]: No
- Inhibition of chemokine expression [3]: No
- Inhibition of clonal expression of co-stimulatory molecules [3]: Yes
- Interferences with T-cell activation [3]: Yes
- Leukocyte trafficking across the blood brain barrier (BBB) [3]: No
- Neuroprotection [3]: Yes
- Protection of BBB [3]: No
- Reduced level of co-stimulatory molecules [3]: No
- Th1 to Th2 deviation [3]: Yes

Molecule: Glucosylceramide [GluCer]
- effect on D-PDMP mediated inhibition of NO production (iNOS [2]; 24 hrs): did not reverse
- effect on D-PDMP inhibition of NO production (iNOS [4]): no effect
- effect on D-PDMP inhibition of iNOS mRNA and protein expression (iNOS [4]): no effect
